Data reported in a melting point compilation (Tetko et al.; mined from patent text by program, amines drawn as free bases though some values may be those of a salt).

| SMILES | melting point [°C] |
| --- | --- |
| CCOC(=O)C(S)C(=S)Cc1ccc(Cl)cc1 (stereo not given) | 36.5 to 37 |
| CCN(C1CC(C)(C)Oc2ccc(O)cc21)S(C)(=O)=O (stereo not given) | 169 to 170 |
| CC(=O)c1ccc(Cc2c(Cl)cc(N3N=CCNC3=O)cc2Cl)cc1 | 189 to 190 |
| O=C(N[C@H]1CC[C@H](CCN2CCC(c3cccc4c3CCO4)CC2)CC1)c1ccc(-n2cccc2)cc1 | 228 |
| COC(=O)N1CCC(c2nn(-c3ccc(F)cc3)c3ccccc23)CC1 | 95 to 97 |
| CCN1c2ncc(CCCc3ccccc3)cc2C(=O)N(C)c2cccnc21 | 100 to 102 |
| CC(C)(C)OC(=O)COc1cc2cc(C(C)(C)O)sc2c(Cl)c1Cl | 137 to 138 |
| O=C(O)CCCc1ccc(NS(=O)(=O)c2cccc(Cl)c2)cn1 | 141 to 142 |
| CCOc1c(C#N)sc(NC(C)=O)c1C#N | 267 to 268 |
| CCCCOC(=O)c1ccc2ccc(C)nc2c1O | 50 |
| NC(=O)N(CCCOc1ccc(C(=O)O)cc1)c1ccc(Cl)cc1 | 172 to 174 |
| CCOP(=O)(OCC)C(CCc1cc(C)nc2c(Cl)c(-c3ccccc3)nn12)P(=O)(OCC)OCC | 66 to 68 |
| Clc1ccc(C2(c3ccc4nccc(CCc5ccc(Cl)s5)c4c3)OCCO2)cc1 | 94 |
| Cc1nc(NC(=O)c2cccc3ccccc23)sc1C(=O)NCc1ccccc1 | 99 to 101 |
| CCCCN(CCO)c1cccc(O)c1 | 45 to 47 |
| FC(F)(F)c1cc(-c2ccc(Cl)cc2)nc2c(-c3ccncc3)cnn12 | 274 |
| Cc1cc(N2CC=C(C(=O)OC(C)C)CC2)c2cccc(Br)c2n1 | 130 to 131 |
| CC(C)(C)OC(=O)[C@H]1N=CSC[C@]1(O)C(F)(F)F | 126 to 128 |
| Cc1ccc2c(c1)c(Cc1nc3cc(C(F)(F)F)ccc3s1)cn2CC(=O)O | 248 to 249 |
| O=C(c1ccccc1)c1ccc([N+](=O)[O-])c(F)c1 | 77 to 79 |
| CC(C)(C)Sc1c(CC(C)(C)C(=O)O)n(Cc2ccc(Cl)cc2)c2ccc(OCc3ccc4cccnc4n3)cc12 | 122 |
| FC(F)(F)c1cc(Cl)c(-n2cc(I)c(-c3ccccc3)n2)c(Cl)c1 | 88 to 89 |
| COc1cc(Cl)c(CCNCC(O)c2ccccc2)cc1OC (stereo not given) | 110 to 113 |
| COc1cc(C=O)cc(OC)c1OC1OC(CO)C(O)C(O)C1NC(C)=O (stereo not given) | 186 to 189 |
| COc1ccc2ccc(N3C(=O)c4ccccc4C3CC(O)CCC(C)C)nc2n1 (stereo not given) | 110 |

| SMILES | melting point [°C] |
| --- | --- |
| Cc1c(Cl)cccc1NC(=O)C(C)(C)C | 113 to 114 |
| ClCc1ccc(C#Cc2ccccc2)cc1 | 61.5 to 63.5 |
| CCc1cc2[nH]c(=O)c(=O)[nH]c2c(N(CC(=O)OC)S(C)(=O)=O)c1Cl | 296 to 299 |
| COc1cc(OC)nc(NC(=O)NS(=O)(=O)c2ccccc2-c2nccn2C)n1 | 182 to 183 |
| CC1=CC(O)C(OC(=O)C=Cc2ccc(N)cc2)C(C)(C)CC1=O (stereo not given) | 49 to 50 |
| OCCNC(c1ccccc1)c1ccccc1 | 69 to 70 |
| COc1ccc2ccccc2c1C1CCN(CCCCNC(=O)c2ccc(-c3ccc(Cl)cc3)cc2)CC1 | 149 |
| N#Cc1ccc(C(F)(F)F)cc1Sc1ccccc1N | 102 to 104 |
| O=c1ccc(-c2cc(F)c(OC3CCN(C4CCC4)CC3)c(F)c2)n[nH]1 | 195 to 197 |
| Cc1cc(C(C)(C)C)cc(C)c1[N+](=O)[O-] | 80 to 82 |
| NC(=O)c1c(F)ccc(OCc2cc3cc(C(F)(F)F)ccc3s2)c1F | 150 to 152 |
| CCOC(=O)c1cn(C2CC2)c2cc(C3CCN(C(C)=O)CC3)c(F)cc2c1=O | 195 to 201 |
| C[C@@H]1CN(c2c(F)c(N)c3c(=O)c(C(=O)O)cn(C4CC4)c3c2F)C[C@H](C)N1 | 258 to 260 |
| NS(=O)(=O)c1ccc(NN=Cc2ccc(F)cc2)cc1 | 205 to 206 |
| CCOC(=O)Cc1ccc2c(c1)sc1c(Cl)cccc12 | 62 to 64 |
| c1ccc2c(c1)CC1(C3=NCCN3)CC21 (single isomer, unassigned; (+)) | 245 to 247 |
| C=C(C)Cc1c(C)c2c(c(C)c1O)CCN2C=O | 132 to 134 |
| Cn1nc(C(F)(F)F)cc1N | 100 to 101 |
| CC(O)c1ccc(-c2ccc(OCc3ccccc3)cc2)cc1 (single isomer, unassigned; (+)) | 158 to 159 |
| C[C@H](C(=O)O)n1ccn(-c2ccc(OCC(F)(F)C(F)F)cc2)c1=O | 149 to 151 |
| OCc1cc2ccccc2c(-c2ccccc2)c1CO | 150 |
| COc1cccc(C2CSc3ccccc3NC2=O)c1 (stereo not given) | 198 |
| COc1ccc2cccc(NC(C)=O)c2c1 | 154 to 155 |
| COC(=O)Cc1cc(-c2ccccc2)ccc1OCc1ccc(OCc2nc(-c3ccccc3)oc2C)cc1 | 111 to 112 |
| CC(C)(C)C(O)C(=Cn1ccnc1)Oc1ccc(Cl)cc1 (stereo not given) | 141 to 143 |

| SMILES | melting point [°C] |
| --- | --- |
| O=C(Nc1ccc(-c2c[nH]c(=O)cn2)cc1)c1ccc([N+](=O)[O-])cc1 | 298 to 300 |
| COc1ccc2c(c1)c(Cc1cc(=O)n(-c3cccc(NC(C)=O)c3)[nH]1)c(C)n2C(=O)c1ccc(Cl)cc1 | 124 to 126 |
| COc1ccc(-c2cc(=O)n(Cc3ccccc3)nc2-c2ccc(OC)c(F)c2)cc1 | 137 to 138 |
| CCCCCCCCCCC1SCCCN1C(=S)Nc1cccc(Cl)c1 (stereo not given) | 63 to 65 |
| CCOC(=O)C1=C(C)NC(=S)N(C(=O)OCC)C1c1ccc([N+](=O)[O-])cc1 (stereo not given) | 163 to 165 |
| O=C(O)C(OCOc1ccc(-c2ccc(Cl)cc2)cc1)(C(F)(F)F)C(F)(F)F | 134 to 135 |
| NC(CCNc1ccccc1)=NO | 91 to 91.5 |
| O=C(NCc1ccc(Cl)cc1)c1cnc2cc(C#CCO)ccc2c1O | 218 to 220 |
| CC(Cc1c[nH]c2ccc(N)cc12)[N+](=O)[O-] (stereo not given) | 120 to 122 |
| CNCC(=O)N1c2ccccc2N(C)S(=O)(=O)c2ccccc21 | 135 to 137 |
| CC1(O)CCC2(C)C(CCC3C2CCC2(C)C(C(=O)COc4ccc([N+](=O)[O-])cc4)CCC32)C1 (stereo not given) | 169 to 172 |
| O=S(=O)(c1ccc(Cl)cc1)C(c1cc(F)ccc1F)c1cc(NCCO)ncc1Cl (stereo not given) | 168 to 169 |
| CC(C)S(=O)(=O)Nc1ccc(Br)cc1 | 98 to 100 |
| COc1ccc2cc3c(Nc4ccc(Cl)cc4Cl)c(C#N)cnc3cc2c1 | > 260 |
| CCOC(=O)N1c2cc(OC)c(OC)cc2C(=O)CC1C (stereo not given) | 94 to 95 |
| CC(=O)N[C@H]1CC[C@H](CCN2CCC(c3ccc(F)c4occc34)CC2)CC1 | 204 |
| CC1(C)CCC(C)(C)c2cc(C(=O)c3ccc(C(O)=NO)cc3)c(OCc3ccc(Br)cc3)cc21 | 221 to 224 |
| CCn1cc(CN(C(=O)C2CCCc3cc(OCCO)ccc32)c2ccc(C(C)C)cc2)cn1 (stereo not given) | 137 |
| CC(C)(C)OC(=O)N1CCN(c2ccc(C(=O)CSc3ccnc4ccccc34)cc2)CC1 | 153 to 154 |
| NC[C@H](O)c1ccc2nnnn2c1 | 153 to 154 |
| CS(=O)(=O)NC(=O)c1cccc(-c2ccc(Cl)c(C(=O)NCC34CC5CC(CC(C5)C3)C4)c2)n1 | 160 to 162 |
| OCc1nc2n(n1)-c1ccc(Cl)cc1N(c1ccccc1)C2 | 204 to 207 |
| COc1cc2nc(-c3n[nH]cc3NC(=O)N(C)C)[nH]c2cc1Cl | > 300 |
| C=CCC(C#N)(C#N)Cc1ccc(C)cc1 | 74.5 |
| COc1ccc(OC)c2c1[C@H](C=O)c1ccccc1[C@@H]2C=O | 129 to 132 |

| SMILES | melting point [°C] |
| --- | --- |
| COc1ccc2c(c1)S(=O)(=O)NC(C)N2 (stereo not given) | 208 to 218 |
| COc1cc(C(=O)Cc2ccc(O)cc2)c(O)cc1O | 157 to 159 |
| CC1(C)CC1C(=O)Nc1ccc(C2=NNC(=O)CC2)cc1 (stereo not given) | 213 to 214 |
| Cc1c(Cl)cccc1N=Cc1ccccc1O | 95 to 97 |
| COC(=O)c1cc(N)ccc1OC(C)=O | 99 to 100 |
| O=C(O)C(=O)Nc1c(-c2ccccc2)c(=O)[nH]c2cc(Cl)ccc12 | 240 |
| CSc1nn2c(N)cc(C)nc2c1S(=O)(=O)c1cccs1 | > 230 |
| Cn1cncc1C(O)(c1ccc(-c2ccc(Cl)cc2)cc1)c1ccc2c(c1)c(-c1cccc(Cl)c1)cc(=O)n2C (stereo not given) | 236 |
| CNC(=O)N1N=C(c2ccc([N+](=O)[O-])cc2)c2cc(Cl)ccc2CC1C (stereo not given) | 190 to 192 |
| O=C1C(c2ccccc2)=C2CCCCC2N1c1ccc(O)cc1 (stereo not given) | 168 |
| Cc1cccc(NC(=O)Nc2cccc3c2C2CC(O)CCN2C3=O)n1 (stereo not given) | 240 to 242 |
| COc1ccc2c(c1)OC(CN1CC=C(c3c[nH]c4ccccc34)CC1)CO2 (stereo not given) | 166 to 168 |
| COC(=O)c1cc(C(C)(C)C)c(OC(=O)c2cc(C(C)(C)C)c(O)c(C(C)(C)C)c2)c(C(C)(C)C)c1 | 206 to 209 |
| O=C1CCCN1CCCNc1cc(C(c2cc(F)ccc2F)S(=O)(=O)c2ccc(Cl)cc2)c(Cl)cn1 (stereo not given) | 78 to 80 |
| COC(=O)C1Cc2cc(Br)ccc2N1C(=O)c1ccccc1 (stereo not given) | 168 to 169 |
| CCCn1c(=O)n2c(-c3ccc(C(=O)O)cc3)nnc2c2c1ncn2C | > 315 |
| CCOC(=O)Cc1ccc(SCc2ccc(Cl)cc2C(=O)O)cc1 | 109 to 112 |
| CCCc1ccc(C(=O)O)c(C(=O)O)n1 | 149 to 153 |
| CC(C)(C)c1cc2c(c(C(C)(C)C)c1)OC(=O)C2c1ccc(F)cc1 (stereo not given) | 146 to 147 |
| CN1C(=O)C(c2c[nH]c3ncccc23)=C(c2cn(C(=O)OC(C)(C)C)c3ccccc23)C1=O | 180 |
| CCC(=O)N1Cc2cn[nH]c2-c2cc([N+](=O)[O-])ccc21 | 219 to 221 |
| CC(=O)Nc1ccc(OC/C=C(\C)C=O)cc1 | 127 to 130 |
| CC(=O)Nc1ccc(S(F)(F)(F)(F)F)cc1 | 131 to 132 |
| CCOC(=O)ON(C(=O)NC)c1cc(Cl)ccc1Cl | 130 to 132 |
| Cc1ccc2c(n1)N(CCCN(C)C)c1ccccc1N(C)C2=O | 130 to 131 |
